From ChEMBL document CHEMBL3044603, “In search of new herbicidal inhibitors of the non-mevalonate pathway” (Pest Manag Sci, 2013)
Calls of active or inactive are those of the source. The rule behind the calls is not given here.

Tests used:
Lemna minor [1] = assay: Herbicidal activity against Lemna minor (common duckweed) assessed as decrease in chlorophyll fluorescence at 56 mg/l measured for 4 days by picture analysis relative to control; type: functional, organism-based
Lemna minor [2] = assay: Herbicidal activity against Lemna minor (common duckweed) assessed as growth inhibition at 56 mg/l measured for 6 days by picture analysis relative to control; type: functional, organism-based
[3] = molecular target: T1, 1-deoxy-D-xylulose-5-phosphate synthase, chloroplastic (Arabidopsis thaliana, UniProt Q38854); assay: Inhibition of Arabidopsis thaliana N-terminal GST-tagged DXS expressed in Escherichia coli BL21 GOLD (DE) using glyceraldehydephosphate and pyruvate as substrate after 90 min by spectrophotometric analysis
T1 sequence (Q38854 whole entry): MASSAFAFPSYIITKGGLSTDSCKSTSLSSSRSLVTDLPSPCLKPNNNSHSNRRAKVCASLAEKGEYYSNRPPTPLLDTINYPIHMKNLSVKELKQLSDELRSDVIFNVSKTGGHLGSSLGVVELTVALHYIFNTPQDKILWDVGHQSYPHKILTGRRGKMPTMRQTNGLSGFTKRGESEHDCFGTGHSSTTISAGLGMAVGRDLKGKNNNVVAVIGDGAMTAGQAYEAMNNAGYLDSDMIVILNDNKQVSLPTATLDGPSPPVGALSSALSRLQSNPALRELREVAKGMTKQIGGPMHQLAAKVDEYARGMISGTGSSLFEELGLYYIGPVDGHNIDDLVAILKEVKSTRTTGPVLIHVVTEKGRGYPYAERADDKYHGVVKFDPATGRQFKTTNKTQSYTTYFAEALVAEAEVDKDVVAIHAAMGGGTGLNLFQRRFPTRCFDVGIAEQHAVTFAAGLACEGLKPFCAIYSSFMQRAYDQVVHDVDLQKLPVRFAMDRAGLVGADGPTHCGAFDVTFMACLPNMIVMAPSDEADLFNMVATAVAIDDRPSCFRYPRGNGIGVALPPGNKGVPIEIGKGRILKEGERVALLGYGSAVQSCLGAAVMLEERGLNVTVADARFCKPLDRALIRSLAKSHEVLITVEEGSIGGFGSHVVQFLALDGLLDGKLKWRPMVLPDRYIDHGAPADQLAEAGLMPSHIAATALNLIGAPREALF

[4] = molecular target: T2, 2-C-methyl-D-erythritol 4-phosphate cytidylyltransferase, chloroplastic (Arabidopsis thaliana, UniProt P69834); assay: Inhibition of Arabidopsis thaliana IspD
T2 sequence (P69834 whole entry): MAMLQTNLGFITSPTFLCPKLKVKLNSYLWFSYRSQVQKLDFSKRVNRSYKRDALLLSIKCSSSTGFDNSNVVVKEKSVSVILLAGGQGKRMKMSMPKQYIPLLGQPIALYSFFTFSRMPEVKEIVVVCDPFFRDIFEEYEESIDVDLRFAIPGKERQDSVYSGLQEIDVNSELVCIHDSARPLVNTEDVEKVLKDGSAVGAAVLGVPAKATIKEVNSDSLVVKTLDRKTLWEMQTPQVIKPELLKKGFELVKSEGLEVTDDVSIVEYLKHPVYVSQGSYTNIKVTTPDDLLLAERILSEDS

[5] = molecular target: T3, 1-deoxy-D-xylulose 5-phosphate reductoisomerase, chloroplastic (Arabidopsis thaliana, UniProt Q9XFS9); assay: Inhibition of Arabidopsis thaliana IspC expressed in Escherichia coli after 40 min by spectrophotometric analysis
T3 sequence (Q9XFS9 whole entry): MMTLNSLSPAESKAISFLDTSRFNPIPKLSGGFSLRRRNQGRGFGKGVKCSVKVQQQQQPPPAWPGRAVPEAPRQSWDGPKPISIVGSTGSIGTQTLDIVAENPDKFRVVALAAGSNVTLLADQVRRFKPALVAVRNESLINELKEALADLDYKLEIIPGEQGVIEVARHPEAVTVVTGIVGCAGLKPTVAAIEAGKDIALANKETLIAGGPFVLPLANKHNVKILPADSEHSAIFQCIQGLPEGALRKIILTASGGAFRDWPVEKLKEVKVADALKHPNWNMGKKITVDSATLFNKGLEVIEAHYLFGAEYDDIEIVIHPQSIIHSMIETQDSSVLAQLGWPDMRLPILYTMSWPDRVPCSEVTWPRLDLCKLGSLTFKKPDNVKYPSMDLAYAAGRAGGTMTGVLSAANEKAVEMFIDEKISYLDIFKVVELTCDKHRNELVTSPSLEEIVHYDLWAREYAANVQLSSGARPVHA

[6] = molecular target: T4, 4-diphosphocytidyl-2-C-methyl-D-erythritol kinase, chloroplastic/chromoplastic (Solanum lycopersicum, UniProt P93841); assay: Inhibition of Solanum lycopersicum (tomato) IspE
T4 sequence (P93841 whole entry): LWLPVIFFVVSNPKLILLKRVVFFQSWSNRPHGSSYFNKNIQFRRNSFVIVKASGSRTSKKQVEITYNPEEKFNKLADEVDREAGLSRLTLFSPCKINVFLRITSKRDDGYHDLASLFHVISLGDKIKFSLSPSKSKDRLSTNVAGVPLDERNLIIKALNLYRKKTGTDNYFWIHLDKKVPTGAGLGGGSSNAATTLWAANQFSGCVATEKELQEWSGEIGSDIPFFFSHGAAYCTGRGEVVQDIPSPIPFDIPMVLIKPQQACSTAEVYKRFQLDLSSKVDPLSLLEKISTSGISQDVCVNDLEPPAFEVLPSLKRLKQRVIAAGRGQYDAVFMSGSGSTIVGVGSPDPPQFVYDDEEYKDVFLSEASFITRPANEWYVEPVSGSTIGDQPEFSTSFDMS

[7] = molecular target: T5, 2-C-methyl-D-erythritol 2,4-cyclodiphosphate synthase, chloroplastic (Arabidopsis thaliana, UniProt Q9CAK8); assay: Inhibition of Arabidopsis thaliana IspF expressed in Escherichia coli XL1-Blue after 30 min by spectrophotometric analysis
T5 sequence (Q9CAK8 whole entry): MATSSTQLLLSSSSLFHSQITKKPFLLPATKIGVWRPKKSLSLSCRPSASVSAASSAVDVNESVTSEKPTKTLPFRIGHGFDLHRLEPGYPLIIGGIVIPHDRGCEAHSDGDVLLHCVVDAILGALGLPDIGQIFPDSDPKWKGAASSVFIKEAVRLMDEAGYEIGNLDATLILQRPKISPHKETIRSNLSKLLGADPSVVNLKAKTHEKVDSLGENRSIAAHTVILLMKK

[8] = molecular target: T6, 4-diphosphocytidyl-2-C-methyl-D-erythritol kinase (Escherichia coli (strain K12), UniProt P62615); assay: Inhibition of Escherichia coli IspE by spectrophotometric analysis
T6 sequence (P62615 whole entry): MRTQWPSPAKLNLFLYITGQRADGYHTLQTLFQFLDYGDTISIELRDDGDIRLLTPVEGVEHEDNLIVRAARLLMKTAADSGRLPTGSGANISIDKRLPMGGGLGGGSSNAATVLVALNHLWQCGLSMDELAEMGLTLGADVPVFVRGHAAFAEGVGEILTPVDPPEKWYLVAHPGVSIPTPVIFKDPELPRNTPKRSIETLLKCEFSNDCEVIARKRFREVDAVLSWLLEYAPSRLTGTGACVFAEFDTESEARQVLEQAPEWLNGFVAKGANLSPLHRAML

| Structure (SMILES) | Activity (Lemna minor [1]) | growth inhibition (GI) (Lemna minor [2]) | IC50 [3] [µM] | other results |
| --- | --- | --- | --- | --- |
| Oc1c(Cc2ccccc2)c(Cl)nc2ncnn12 | Active | Active | – | – |
| COc1ccc(/C=N/Nc2nc3ccccc3[nH]2)cc1OCc1ccccc1 | inactive | inactive | 49 | – |
| COc1ccc(-c2onc(C(F)(F)F)c2-c2ccc(Br)cc2)c(O)c1 | Active | Active | 32 | – |
| COc1ccc2nc(NC(=O)c3cc(-c4ccccc4O)n[nH]3)sc2c1 | inactive | inactive | – | IC50 [4]: 1800 nM |
| CCC1(C)Cc2c(sc3nc(SC)nc(O)c23)CS1 (configuration not stated) | inactive | inactive | – | IC50 [5]: 59 µM |
| NC1=N/C(=N\NC(=O)c2cc(Cl)ccn2)c2ccc3ccccc3c21 | Active | Active | – | IC50 [6]: 7.2 µM |
| N#Cc1cnn2c(O)c(Cc3ccccc3)c(Cl)nc12 | – | – | – | IC50 [4]: 35 nM |
| COc1ccc2nc(NC(=O)COc3ccc(-c4ccccc4)cc3)sc2c1 | inactive | inactive | – | IC50 [4]: 6300 nM |
| CCOc1ccc(-c2onc(C(F)(F)F)c2-c2ccc(OC)cc2)c(O)c1 | Active | Active | 61 | – |
| O=CN(O)CCCP(=O)(O)O [FOSMIDOMYCIN] | – | – | – | IC50 [5]: 0.1 µM |
| O=C(O)c1ccc(-c2ccc(/C=N/Nc3nc4ccccc4s3)o2)cc1 | inactive | inactive | 33 | – |
| CCOC(=O)C1=C(C)N=c2s/c(=C\c3cc(Br)c(O)c(Br)c3)c(=O)n2C1c1ccc(OC)cc1 (configuration not stated) | – | – | – | IC50 [7]: 3.2 µM |
| CC1(C)C(=O)ON(Cc2ccccc2Cl)C1=O [KETOCLOMAZONE] | – | – | 0.08 | – |
| CC(C)Nc1nc(Nc2ccccc2)nc(Cl)c1-c1c(F)cccc1Cl | inactive | inactive | – | IC50 [5]: 34 µM |
| NC1=N/C(=N\NC(=O)Cc2cccc3ccccc23)c2ccccc21 | inactive | inactive | – | IC50 [6]: 54 µM |
| Nc1ccn([C@@H]2O[C@H](CNC(=O)CCc3nc4ccccc4[nH]3)[C@@H](O)[C@H]2O)c(=O)n1 | – | – | – | IC50 [8]: 1700 nM |
